Data: publication PMC6382835, “A critical evaluation of TRPA1-mediated locomotor behavior in zebrafish as a screening tool for novel anti-nociceptive drug discovery” (Scientific Reports, 2019)

Key:
5 dpf zebrafish larvae = experiment: Zebrafish locomotor tracking assay; assay type: in vivo, Zebrafish (Danio rerio); details: for swimming (locomotor) behavior: 100 μM agonist, 5 dpf larvae, 300 s tracking
Procedure: Wild-type zebrafish of the AB line were utilized for all behavioral experiments. Adult and larval zebrafish were maintained on a 14 hr/10 hr light/dark cycle. They were maintained and bred using standard procedure https://zfin.org/zf_info/zfbook/zfbk.html. Larval zebrafish were reared until 5 days post-fertilization (dpf) in E3 media https://zfin.org/zf_info/zfbook/chapt1/1.3.html in an incubator at 28 °C. E3 media was changed daily, and healthy embryos were kept for experiments.
In the behavioral experiments, one 5 dpf zebrafish was placed in 250 μL of fish media per well of a 96-well plate (UNIPLATE Collection and Analysis Microplate, 96-Well 7701-1651). For each experimental condition, a group of 8 larvae (1 column) was used. Larvae were acclimated to the wells for 300 seconds after which an 8-channel pipette was used to simultaneously dispense 250 μL of 2x concentration of the TRPA1 agonist ASP7663 in fish media into each well. Locomotor activity was subsequently tracked and quantified (as distance travelled) for 300 additional seconds utilizing the Zebrabox system from ViewPoint Behavior Technology (Civrieux, France). For TRPA1 antagonist testing, larvae in the 96-well plate were pretreated with 1x concentration of antagonist in 250 μL E3 media for 20 minutes. Then, 250 μL of 2x TRPA1 agonist was added directly to this solution, and the resulting behavior was recorded as described above.
(§1) All data are presented as means ± standard error of the mean (SEM). For our in vitro statistical analysis, AUC of calcium influx (RFU) was measured to plot dose-response curves, which were further analyzed by nonlinear regression analysis. Mean RFU of the first 10 seconds was used as a baseline of the AUC. EC50 values of the dose-response curves were further used to plot Schild curves, and the curves were analyzed with linear regression analysis. For the mice von Frey test, mechanical thresholds were analyzed with two-way ANOVA followed by a Bonferonni test for multiple comparison analysis. For the zebrafish behavior test, the data from the first five seconds following drug administration were excluded, as zebrafish displacement during that period was highly influenced by liquid dispensing. AUC of all curves were measured and analyzed by one-way ANOVA. The post-hoc analysis was conducted with the Tukey’s or Dunnett’s multiple comparisons unless it stated otherwise. A value of y = 0 in the graph was used as a baseline of the AUC. For our time-course average displacement graph, we used 2nd degree polynomial smoothing for a better representation; however, we used data before smoothing for all statistical analysis and quantification. All in vitro and in vivo data were evaluated using GraphPad Prism 7 (GraphPad Software, La Jolla, CA) unless it stated otherwise.

[1] = test system: non-transfected HEK293 cells; experiment: FLIPR calcium signaling assay in non-transfected HEK293 cells (off-target effect); assay type: cell-based
C57BL/6 mice = experiment: Von Frey test of mechanical hypersensitivity; assay type: in vivo, Mice (Mus musculus)
Procedure: We utilized WT C57BL/6 mice purchased from Envigo (Indianapolis, IN, USA). Total sixteen adult male mice (8–9 weeks, 22 ± 2 g) were housed in four ventilated Plexiglas cages (4 mice per cage). Four mice were tested in each group. Mice are maintained at temperature (21 °C) in an animal housing facility accredited by the Association for Assessment and Accreditation of Laboratory Animal Care with a reversed 12-hour dark-light cycle (lights off at 1000, lights on at 2200). This study was carried out in accordance with the recommendations of the National Institutes of Health Guide for the Care and Use of Laboratory Animals. The protocol (#1201000592 by Y.F.L. for Zebrafish, and #1605001408 by R.M.vR for mice) was approved by the Purdue University Institutional Animal Care and Use Committee.
Von Frey filaments (2.44 (0.04 g)–4.31 (2 g)) and a grid platform (#58011 and #57816, Stoelting, WI, USA) were used to test mechanical hypersensitivity of mice. A modified up-and-down method was utilized as previously described. […] Drug-induced mechanical hypersensitivity was measured 30 minutes after the second injection. […]
as §1, with “Mean RFU of the first 10 seconds was used as a baseline of the AUC.” left out, “For the zebrafish behavior test, the data from the first five seconds following drug administration were excluded, as zebrafish displacement during that period was highly influenced by liquid dispensing.” left out, “The post-hoc analysis was conducted with the Tukey’s or Dunnett’s multiple comparisons unless it stated otherwise. A value of y = 0 in the graph was used as a baseline of the AUC.” left out

SMILES | swimming (locomotor) behavior (5 dpf zebrafish larvae) | calcium influx by antagonist alone [1] | block of ASP7663-induced mechanical hypersensitivity (C57BL/6 mice; HC-030031 100 mg/kg p.o. 30 min before ASP7663 1 mg/kg i.p.) | mechanical thresholds of von Frey filaments, pre- vs post-drug (C57BL/6 mice; HC-030031 100 mg/kg p.o. alone) | swimming behavior with antagonist alone (5 dpf zebrafish larvae; 10 μM HC-030031 alone vs E3) | inhibition of ASP7663 (100 μM)-mediated nocifensive locomotor behavior (5 dpf zebrafish larvae; 10 μM antagonist pre-incubation 20 minutes) | pEC50 (off-target calcium response) [1] | EC50 ([1]; read-out: EC50 (off-target calcium response)) [µM] | mechanical thresholds of von Frey filaments, pre- vs post-drug (C57BL/6 mice; ASP7663 1 mg/kg i.p., measured 30 minutes after injection) | locomotor activity (5 dpf zebrafish larvae; ASP7663 higher concentration 31.6 and 100 μM) | locomotor activity (5 dpf zebrafish larvae; ASP7663 low doses 3.16 and 10 μM)
C=CCN=C=S [AITC, allyl isothiocyanate] | elicited an acute and rapid swimming behavior immediately upon treatment | – | – | – | – | – | – | – | – | – | –
CC(C)c1ccc(NC(=O)Cn2cnc3c2c(=O)n(C)c(=O)n3C)cc1 [HC-030031] | – | did not observe any calcium influx | blocked mechanical hypersensitivity induced by ASP7663 | did not show a statistical significance between pre- and post-drug mechanical thresholds | increased swimming behavior over baseline | inhibited the nocifensive locomotor behavior | – | – | – | – | –
CC(C)CN1C(=O)/C(=C/C(=O)O)c2cccc(F)c21 [ASP7663] | induced a slower and more sustained swimming behavior | – | – | – | – | – | 4.27 ± 0.03 | 54.1 | significantly decreased mechanical thresholds | hyperlocomotor activity | induced hypolocomotion
